Experimental data reported in patent US20060160871A1, “Stable non-crystalline formulation comprising losartan” (Nektar Therapeutics, priority 2004, published 2006).

What was measured:
[1] = Powder flowability after exposure to ambient conditions; assay type: physicochemical
Description: The particles made by Example 2 were further determined to be advantageous over pure non-crystalline forms. […] Accordingly, the non-crystalline losartan and PVP-VA containing powder formulation has an improved flowability for downstream process such as tablet formation.

[2] = Differential Scanning Calorimetry (DSC): amorphous form and glass transition temperature; assay type: physicochemical; details: specific heat as a function of temperature
Protocol: DSC was used to determine glass transition temperatures. This technique provides a measure of the glass transition characteristics of amorphous materials. In addition, the absence of a melting point is indicative of the lack of three dimensional order characteristic of crystalline materials. A Perkin-Elmer™ DSC 7 (Perkin-Elmer Ltd, UK) was used. 1-5 mg samples were examined in sealed, crimped aluminium pans, under an atmosphere of nitrogen. Samples were measured using a TA DSC-2920 instrument (TA Instruments, New Castle, Del.). About 5-10 mg sample was packed into an aluminum DSC pan and gently tapped to get the powder to form a uniform layer on the bottom of the pan (Catalog numbers 900 793.901 for pans and 900 794.901 for lids). The DSC pan was hermetically sealed using a sample encapsulation press (part # 900680.902). Helium is used as the DSC purge gas at 30 ml/min. A Refrigerated Control System (RCS) provides the heat sink for the DSC, with helium as the circuit gas run at ˜110 ml/min. In modulated DSC experiments, the sample was first cooled to about 0° C., held isothermally for 10 minutes, and then heated at 2° C./minute to ˜200° C. The heating rate was modulated by superimposing a sinusoidal heating profile at ±0.318° C./min.

Structure (SMILES): CCCCc1nc(Cl)c(CO)n1Cc1ccc(-c2ccccc2-c2nnn[nH]2)cc1.[K] [pure non-crystalline losartan, 2-butyl-4-chloro-1-[p-(o-1H-tetrazol-5-ylphenyl)benzyl]imidazole-5-methanol monopotassium salt]
- powder flowability [1]: sticks and agglomerates
- Tg midpoint [2]: about 51 °C
- Tg onset [2]: about 46 °C
